41 compounds from publication PMC6013488, “A widely-applicable high-throughput cellular thermal shift assay (CETSA) using split Nano Luciferase” (Scientific Reports, 2018) can be followed below.

The experiment addresses T1, CDK9/cyclin K (Homo sapiens, UniProt P50750).
T1 construct: purchased Invitrogen (ThermoFisher) PV4335
As to the kind of experiment: TR-FRET Lanthascreen Eu Kinase Binding assay. The following applies: for Curve Class: classifies curves by quality of fit, efficacy and number of asymptotes; for Efficacy: difference between highest and lowest activity across concentration range; for Efficacy / Max Resp: in %. The text has this: The TR-FRET Lanthascreen Eu Kinase Binding assay for CDK9/cyclin K was purchased from ThermoFisher and performed as per manufacturer instructions.

The mark [1] stands for this setting: concentration at which half maximal activity is observed, 7-point qHTS, read-out: AC50.

The structures appear in SMILES notation. Where a name gives a salt, the structure may show the parent alone. Read-outs that look alike come from different tables or passages of the source.

T1 sequence (P50750 whole entry): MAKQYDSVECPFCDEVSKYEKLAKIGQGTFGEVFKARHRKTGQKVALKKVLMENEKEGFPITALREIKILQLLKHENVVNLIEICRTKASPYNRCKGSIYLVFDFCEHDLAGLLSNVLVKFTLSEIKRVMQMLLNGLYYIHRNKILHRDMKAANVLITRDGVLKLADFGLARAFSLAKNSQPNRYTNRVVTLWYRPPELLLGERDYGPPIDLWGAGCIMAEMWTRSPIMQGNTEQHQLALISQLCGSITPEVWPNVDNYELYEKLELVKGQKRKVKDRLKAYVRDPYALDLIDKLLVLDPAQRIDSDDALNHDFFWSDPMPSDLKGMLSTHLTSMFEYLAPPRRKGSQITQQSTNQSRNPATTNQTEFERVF
T1 sequence (O75909 whole entry partner): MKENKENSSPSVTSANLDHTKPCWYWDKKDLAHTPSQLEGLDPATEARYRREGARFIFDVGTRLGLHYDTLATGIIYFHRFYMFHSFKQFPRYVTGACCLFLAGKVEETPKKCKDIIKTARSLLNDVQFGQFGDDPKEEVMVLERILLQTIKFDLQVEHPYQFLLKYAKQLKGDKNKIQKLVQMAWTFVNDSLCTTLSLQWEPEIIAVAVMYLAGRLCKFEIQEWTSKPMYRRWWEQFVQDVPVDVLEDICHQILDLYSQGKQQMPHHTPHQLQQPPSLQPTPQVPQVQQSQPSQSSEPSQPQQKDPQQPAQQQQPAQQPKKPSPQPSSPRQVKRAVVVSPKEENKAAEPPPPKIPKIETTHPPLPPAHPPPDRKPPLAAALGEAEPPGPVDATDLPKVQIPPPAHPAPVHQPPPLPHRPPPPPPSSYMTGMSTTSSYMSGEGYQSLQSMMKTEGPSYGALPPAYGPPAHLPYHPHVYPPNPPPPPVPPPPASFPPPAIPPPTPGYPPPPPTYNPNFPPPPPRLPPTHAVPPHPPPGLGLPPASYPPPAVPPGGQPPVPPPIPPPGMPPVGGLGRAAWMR

As for `Nc1n[nH]c(N)c1N=Nc1ccc(O)cc1` (stereo in doubt) [CAY10574], the “Curve Class” value is recorded as -1.1, the Efficacy is given as -84.6 and the “Max Resp” value was -95.5.
`CCCCNc1ncc(C(=O)NCc2ccc(-n3ccnc3)cc2)c(NC2CCC(O)CC2)n1` (stereo in doubt) [UNC2881]: the “Curve Class” value is -1.1, the Efficacy was -93.2 and the “Max Resp” value is -99.2.
Taken in the same sequence, the figures for `O=C1Nc2ccc(F)cc2/C1=C1\Nc2ccccc2\C1=N\O` [5 -Fluoroindirubinoxime] were -1.1, -80.2 and -86.1.
Taken in the same sequence, the figures for `Nc1ncnc2c1c(I)cn2[C@@H]1O[C@H](CO)[C@H](O)C1O` (stereo partly shown) [5-Iodotubercidin] were -1.1, -92.5 and -99.1.
On the same counts, the results for `COc1ccc2c(NC(=O)Nc3cccc(C(F)(F)F)n3)ccnc2c1` [A 1070722] are -1.4, -58.3 and -64.1.
For `CC(C)n1nc(-c2ccc(NC(=O)Nc3cccc(C(F)(F)F)c3)cc2)c2c(N)ncnc21` [AD57 (hydrochloride)], the “Curve Class” value is -1.1, the Efficacy was -86.8 and the “Max Resp” value is -79.5.
Taken in the same sequence, the figures for `N#C/C(=C1\Nc2ccccc2S1)c1ccnc(NCCc2cccnc2)n1` [AS601245] were -1.2, -79.8 and -85.8.
Taken in the same sequence, the figures for `O=C(NC1CCNCC1)c1[nH]ncc1NC(=O)c1c(Cl)cccc1Cl` [AT7519] were 5, -14.9 and -96.9.
`O=C(Nc1c[nH]nc1-c1nc2ccc(CN3CCOCC3)cc2[nH]1)NC1CC1` [AT9283]: the “Curve Class” value is -1.1, the Efficacy was -93.9 and the “Max Resp” value is given as -97.0.
For `CC(C)Oc1cc(Nc2nc(N[C@@H](C)c3ccc(F)cn3)ncc2Cl)n[nH]1` [AZ 23], the “Curve Class” value is listed as -1.2, the Efficacy was -76.1 and the “Max Resp” value was -97.4.
Taken in the same sequence, the figures for `Cc1ncc(-c2ccnc(Nc3ccc(S(C)(=O)=O)cc3)n2)n1C(C)C` [AZD5438] were -1.2, -75.7 and -98.3.
Taken in the same sequence, the figures for `CN[C@H]1CCN(C(=O)c2ccc(Nc3ncc(F)c(-c4cnc(C)n4C(C)C)n3)cc2)C1` [AZD-5597] were -1.3, -51.7 and -96.5.
In the case of `O=C1Cc2c([nH]c3ccc([N+](=O)[O-])cc23)-c2ccccc2N1` [Alsterpaullone], the “Curve Class” value is reported as -1.1, the Efficacy is -82.6 and the “Max Resp” value is recorded as -92.4.
Take `CC(=O)N1CCN(C(=O)Cc2ccc(Nc3ncc(F)c(Nc4ccc(C(=O)Nc5ccccc5Cl)cc4)n3)cc2)CC1` [Aurora A inhibitor II]: the “Curve Class” value is listed as -1.1, the Efficacy is reported as -82.6 and the “Max Resp” value was -83.7. Moreover, the AC50 under setting [1] was 947 nM. Also, the “Log AC50 (M)” value (logarithm of AC50) is listed as -6.0 M.
Consider `COc1ccc(-c2cc3nccn3c(Nc3ncccc3C(N)=O)n2)cc1OC` [BAY 61-3606 (dihydrochloride)], for which the “Curve Class” value is on record as -1.1, the Efficacy is given as -91.8 and the “Max Resp” value was -92.1.
Take `CC(C)c1cnn2c(NCc3ccccc3)cc(N[C@@H](CO)[C@H](O)CO)nc12` [BS194]: the “Curve Class” value is recorded as -1.1, the Efficacy is recorded as -108.2 and the “Max Resp” value is recorded as -95.8.
On the same counts, the results for `O=C(NCCCNc1nc(Nc2cccc(NC(=O)N3CCCC3)c2)ncc1I)c1cccs1` [BX-795 hydrochloride] are -1.1, -99.6 and 5.8.
For `Cc1cc(CN2CCN(c3c(Br)cnc4[nH]c(-c5ccc(N6CCN(C)CC6)cc5)nc34)CC2)no1` [CCT137690], the “Curve Class” value was -1.2, the Efficacy is listed as -77.1 and the “Max Resp” value is listed as -79.3.
Regarding `OCCCNc1cc(-c2ccnc(Nc3cccc(Cl)c3)n2)ccn1` [CGP60474], the “Curve Class” value is -1.2, the Efficacy was -56.9 and the “Max Resp” value is recorded as -98.0.
In the case of `Nc1nc(NCCNc2ncc(-n3ccnc3)c(-c3ccc(Cl)cc3Cl)n2)ccc1[N+](=O)[O-]` [CHIR98014], the “Curve Class” value is recorded as -1.1, the Efficacy is -87.0 and the “Max Resp” value is -80.6. This compound came in with an AC50 (AC50, concentration at which half maximal activity is observed, 7-point qHTS) of 134 nM.
Regarding `COCCOc1ccc2c(c1)ncn2-c1ccc2cccc(N3CCC(N)CC3)c2n1` [CP-673451], the “Curve Class” value is reported as -1.1, the Efficacy was -83.3 and the “Max Resp” value is -91.2. Also, under setting [1], the AC50 was 150 nM.
Consider `CC1(COc2ccc3c(c2)ncn3-c2ccc3cccc(N4CCC(N)CC4)c3n2)COC1` [CP-868596 (Crenolanib)], for which the “Curve Class” value is given as -1.1, the Efficacy is -91.6 and the “Max Resp” value is -90.2.
As for `COc1ccc(CNc2nc(N(CCO)CCO)nc3c2ncn3C(C)C)cc1` [CVT-313], the “Curve Class” value is recorded as -1.1, the Efficacy is -101.1 and the “Max Resp” value is listed as -99.9. The AC50 under setting [1] was 532 nM.
Consider `O=C(O)c1ccc2c(c1)nc(Nc1cccc(Cl)c1)c1ccncc12` [CX-4945 (sodium salt)], for which the “Curve Class” value is listed as -1.1, the Efficacy is listed as -98.0 and the “Max Resp” value was -93.5.
On the same counts, the results for `Cc1nc(N)sc1-c1ccnc(Nc2ccc(N3CCOCC3)cc2)n1` [CYC-116] are -1.1, -92.0 and -90.5.
Regarding `N#CCNC(=O)c1ccc(-c2ccnc(Nc3ccc(N4CCOCC4)cc3)n2)cc1` [CYT-387], the “Curve Class” value is -1.1, the Efficacy is -85.8 and the “Max Resp” value is listed as -96.7.
For the compound `NS(=O)(=O)c1ccc(NN=C2C(=O)Nc3ccc(Br)cc32)cc1` [Cdk2 Inhibitor II], the “Curve Class” value was -1.2, the Efficacy is -67.2 and the “Max Resp” value is listed as -64.7.
With `CC(C)c1nn(-c2c(Cl)cccc2Cl)c2nc(Cc3ccc(OCCO)cc3)[nH]c(=O)c12` [Cdk/Crk Inhibitor], the “Curve Class” value was -1.2, the Efficacy is -57.1 and the “Max Resp” value was -99.2.
Taken in the same sequence, the figures for `Cc1n[nH]c2ccc(-c3cncc(OC[C@@H](N)Cc4c[nH]c5ccccc45)c3)cc12` [Compound A-443654, A-443654] were -1.1, -88.0 and -96.6.
As to `Cc1n[nH]c2ccc(-c3cncc(OC[C@@H](N)Cc4ccccc4)c3)cc12` [Compound A-674563, A-674563], the “Curve Class” value is reported as -1.1, the Efficacy was -89.8 and the “Max Resp” value was -98.7.
With `O=C1Nc2ccc3ncsc3c2/C1=C/c1c[nH]cn1` [Compound C16, C16], the “Curve Class” value was -1.2, the Efficacy is -77.3 and the “Max Resp” value is on record as -68.5.
On the same counts, the results for `CN1CCC(c2c(O)cc(O)c3c(=O)cc(-c4ccccc4Cl)oc23)C1CO` (stereo not shown) [Compound P276-00, P276-00] are -1.2, -60.7 and -99.0.
On the same counts, the results for `COc1ccc(F)c(F)c1C(=O)c1cnc(NC2CCN([S+](C)(=O)[O-])CC2)nc1N` [Compound R547, R547] are 5, -13.4 and -94.3.
Taken in the same sequence, the figures for `NC(=O)c1ccccc1Nc1ccnc(Nc2cccc(O)c2)n1` [DB07268] were -1.1, -100.7 and -97.2.
Consider `CN(C)c1nc2c(Br)c(Br)c(Br)c(Br)c2[nH]1` [DMAT], for which the “Curve Class” value was -1.1, the Efficacy is -84.2 and the “Max Resp” value was -94.6.
Taken in the same sequence, the figures for `CNC(=O)c1ccc(Nc2ncc(C(F)(F)F)c(NCc3nccnc3N(C)[S+](C)(=O)[O-])n2)cc1` [Defactinib (VS-6063, PF-04554878)] were -1.1, -79.8 and -50.3.
Take `O=C(Nc1ccnc(NC(=O)C2CC2)c1)c1c(Cl)cccc1Cl` [GDC-046]: the “Curve Class” value is given as -1.1, the Efficacy is on record as -83.7 and the “Max Resp” value was -94.2. Moreover, under setting [1], the concentration at half-maximal activity (AC50) turned out to be 33.6 nM. The AC50 (logarithm of AC50, read-out: Log AC50 (converted)) was 31.6 nM.
`CN(C)CCCn1cc(C2=C(c3c[nH]c4ccccc34)C(=O)NC2=O)c2ccccc21` [GF109203X]: the “Curve Class” value was -1.2, the Efficacy is -69.1 and the “Max Resp” value is on record as -74.0.
Taken in the same sequence, the figures for `O=C1NC(=O)/C(=C/c2ccc3nccc(-c4ccncc4)c3c2)S1` [GSK1059615] were -1.1, -89.8 and -91.2.
On the same counts, the results for `O=C(O)c1ccc(-c2c[nH]c3ncc(-c4ccccc4)cc23)cc1C1CCCC1` [GSK-650394] are -1.2, -77.0 and -89.0.
Taken in the same sequence, the figures for `O=C1NC(=O)/C(=C/c2ccc3nccc(-c4ccncc4)c3c2)S1` [GSK-1059615] were -1.2, -79.9 and -87.0.
